Earlier results in patent US20040166561A1, “Novel intein and uses thereof” (priority 2001, published 2004).

Columns and labels:
[1] = system: RecA intein from Mycobacterium tuberculosis; settings: 0.2 mM zinc (6parts/million); in vitro, splicing in trans
[2] = molecular target: T1, naturally split DnaE intein from Synechocystis sp. PCC6803 (Synechocystis sp., UniProt P74750); settings: 0.2 mM zinc (6parts/million); in vitro, splicing in trans
T1 construct: by the naturally split DnaE intein from Synechocystis sp; PCC6803

[Zn+2] [zinc]
inhibition of protein splicing [1]: 90% | inhibition of protein splicing [2]: 90%
